Reference: patent US8557804B2, “Nicotinic receptor agonists for the treatment of inflammatory diseases” (priority 2002, dated 2013)

What was measured:
[1] = tested on: IFN-γ mRNA in T lymphocytes isolated from BAL; test: IFN-γ mRNA in PHA-stimulated BAL lymphocytes from HP patients; assay type: cell-based, human
Experimental: Since one goal was to treat patients with DMPP or similar drugs, the effect of this drug was verified on lymphocytes from patients with HP. BAL were performed on patients with HP. Lymphocytes were isolated from the other BAL cells, stimulated with PHA and incubated with DMPP. The dose-response of DMPP were tested on cytokine mRNA production (by RT-PCR) for IFN-γ.

[2] = tested on: mouse tracheal airway smooth muscle; test: Isometric study on isolated mouse tracheas pre-contracted with metacholine; details: cumulative doses, metacholine 10^−5
Experimental: Tracheal rings were mounted isometrically to force transducers in organ baths containing Krebs bicarbonate solution at 37° C. and bubbled with 95% O2-5% CO2, pre-contracted with submaximal concentration of metacholine (10^−5) and cumulative doses of the analogs were added to the baths. Changes of tension are recorded. Results are expressed as a percentage of maximal contraction (FIG. 29).
As described previously, tracheal or bronchial rings were mounted isometrically to force transducers in organ baths containing Krebs bicarbonate solution at 37° C. and bubbled with 95% O2-5% CO2, pre-contracted with submaximal concentration of metacholine cumulative doses of ASM-002 added. Changes of tension are recorded. Results are expressed as a percentage of maximal contraction for mouse (FIG. 34, p=0.002), dog (FIG. 35, p=0.004) and human (FIG. 36)

IL-5 = test: BAL IL-5 levels in the ovalbumin mouse asthma model; assay type: in vivo, Balb/c mice; details: 0.5 mg/kg treated-group
Experimental: Groups of Balb/c mice were sensitized by intra-peritoneal injection of 20 μg OVA protein (chicken egg albumin; Sigma-Aldrich) emulsified in 2 mg aluminum hydroxide in PBS. After 4 weeks, challenge doses of 1.5%/50 μl OVA were administered intranasally. The challenge was performed daily for 3 consecutive days and then the mice assessed for allergic inflammation of the lungs 24 h after the last aerosol exposure. Groups of mice were treated with various concentrations of DMPP during the challenge period. Broncho-alveolar lavage (BAL) was performed and the fluid centrifuged at 400 g to separate cells from liquid.
The supernatants were used to determine lung IL-5 levels. The total, number of BAL cells and differential cell counts were evaluated.

`C[N+]1(C)CCN(c2ccccc2)CC1` [DMPP, Dimethylphenylpiperazinium] was tested, and the “expression of IFN-γ mRNA” value [1] was “reduced expression of IFN-γ”, the “relaxation of tracheal smooth muscles pre-contracted with metacholine” value [2] was “dose dependant relaxation” and the “IL-5 levels in BAL” value (IL-5) was “significant inhibitory effect”.
